Values joined by “and” are separate entries in the source; they are usually repeats but may differ in a detail not shown here. Equal values may be shown once. “Also recorded” adds a separate entry of the source. Read-outs that look alike come from different tables or passages of the source.
Experiments:
[1] = system: high grade dysplasia-carcinoma in Barrett's Esophagus; experiment: HPPH PDT of high grade dysplasia-carcinoma in Barrett's Esophagus; assay type: in vivo, human
Excerpt: Use of HPPH Photodynamic Therapy for treatment of high grade dysplasia-carcinoma in Barrett's Esophagus. All energy was at 175 Joules/cm at 665±5 nm Light Energy 48 HRS Post Injection. This was a single treatment. Based on studies with PHOTOFRIN®, it is expected that three treatments, instead of just one, would result in about an 77% cure rate.

[2] = system: advanced obstructive endobronchial lung cancer; experiment: Palliative treatment of advanced obstructive endobronchial lung cancer; assay type: in vivo, human; settings: 0.1 mg/kg; for 2 Month FU response (patients) / Long Term FU outcome (patients): 48 HRS post injection
Description: Palliative Treatment of Advanced Obstructive Endobronchial Lung Cancer For relief in breathing only. Long term responses not expected due to most patients having wide spread disease outside of the area treated by HPPH in the Bronchus. All HPPH doses were 0.1 mg/kg with exposure of 100 to 140 Joules per cm of diffusion fiber at 665±5 nm Light Energy 48 HRS Post Injection.

normal skin tissue = experiment: Adverse effects for normal skin tissue exposed to 133 Joules/cm^2; assay type: in vivo, human; design: key: 1: faint erythema; 2: minimal erythema with sharp borders; 3: pronounced erythema without edema; 6: more than 10% of toxic dose causing peripheral neuropathy in animals; settings: normal skin exposed to 133 Joules/cm^2
Description: Adverse effects for normal skin tissue when exposed to 133 Joules/cm^2 (approximately equivalent to 30 minutes of midday sun exposure in Northeastern United States): 1=faint erythema; 2=minimal erythema with sharp borders; 3=pronounced erythema without edema; 6- more than 10% of toxic dose causing peripheral neuropathy in animals.

bronchiogenic carcinoma = experiment: Interluminal HPPH-PDT treatment of bronchiogenic carcinoma; assay type: in vivo, human; settings: 0.1 mg/kg, 75-85 J/cm, 48 HRS post injection
Excerpt: Dosages are in Joules per cm length of light delivering optical fiber.

tumor [3] = settings: mice, 0.05 to 0.3 mg/kg, 135 Joules/cm^2; cited from earlier work
dogs = settings: cited from earlier work
basal cell carcinoma = experiment: Photodynamic therapy for treatment of basal cell carcinoma using HPPH; assay type: in vivo, human
Excerpt: Table 1 gives results of a study of Photodynamic Therapy for the treatment of basal cell carcinoma using 2-(1-hexyloxyethyl)-2-devinyl pyropheophorbide-a (HPPH).
All dose data converted from actual drug dose in milligrams per square meter of surface area of patient assuming a 70 kg patient having a 2 m^2 surface area.

skin = settings: cited from earlier work
tumor [4] = settings: of body weight; cited from earlier work
[5] = 0.075 mg/kg, 175 Joules/cm, 48 HRS post injection, single treatment

For `CCCCCCOC(C)c1c(C)c2cc3nc(c4c5[nH]c(cc6nc(cc1[nH]2)C(C)=C6CC)c(C)c5C(=O)C4)C(CCC(=O)O)C3C` (stereo not drawn) [HPPH, 2-(1-hexyloxy)-2-ethyl-derivative of pyropheophorbide-a], the “2 mo/FU response (patients)” value [1, 5] was 3 PR/2 CR, the “Long Term/FU response (patients)” value [1, 5] was 3 PR/2 CR and the “2 mo/FU response (patients)” value ([1]; 0.1 mg/kg, 175 Joules/cm, 48 HRS post injection, single treatment) was 4 PR/3 CR. For the same molecule, the Expected cure rate ([1]; three treatments instead of one, expected based on studies with PHOTOFRIN) was roughly 77%, the “2 Month FU response (patients)” value ([2]; 100 J/cm) was 1 CR/2 PR and the “Long Term FU outcome (patients)” value ([2]; 100 J/cm) was 1 disease. For the same molecule, the “Outcome upon long term follow up” value ([2]; 100 to 140 Joules per cm) was “one was disease free”, the “Systemic or phototoxic side effects” value ([2]; 100 to 140 Joules per cm) was “No observable systemic or phototoxic side effects” and the “2 Month FU response (patients)” value ([2]; 110 J/cm) was 3 PR. For the same molecule, the “2 Month FU response (patients)” value ([2]; 130 J/cm) was 2 CR/1 PR, the “Long Term FU outcome (patients)” value ([2]; 130 J/cm) was 2 new and the “2 Month FU response (patients)” value ([2]; 140 J/cm) was 1 CR. The “Long Term FU outcome (patients)” value ([2]; 140 J/cm) was 1 new, the “Palliative response (improved ability to breathe)” value ([2]; all cases, 100 to 140 Joules per cm) was “at least partial palliative response” and the “Adverse Effects Noted” value (normal skin tissue; 0.05 mg/kg* (interpolated from 48 hr data)) was 1. The “Adverse Effects Noted” value (normal skin tissue; 0.07 mg/kg* (interpolated from 48 hr data)) was 1, the “Adverse Effects Noted” value (normal skin tissue; 0.07 mg/kg) was 1 and the “Adverse Effects Noted” value (normal skin tissue; 0.09 mg/kg) was 1. The “Adverse Effects Noted” value (normal skin tissue; 0.12 mg/kg* control (interpolated from 48 hr data)) was 3 and 2, the “Adverse Effects Noted” value (normal skin tissue; 0.17 mg/kg control) was 3-6 and 2-6 and the “Systemic or phototoxic side effects” value (bronchiogenic carcinoma) was “No observable systemic or phototoxic side effects”. For the same molecule, the “Long term tumor response” value (tumor [3]) was “no or extremely little long term tumor response”, the “Toxicity finding at lowest toxic dose” value (dogs; about 1.5 mg/kg in 0.1% Tween 80, test animals, toxicity said due to surfactant) was “neuropathy is common” and the Lowest toxic dose (dogs; in 0.1% Tween 80 (polysorbate 80) surfactant solution, dogs) was “about 1.5 mg/kg”. For the same molecule, the “Result of treatment of basal cell carcinoma” value (“Result” below) (basal cell carcinoma; 0.05 mg/kg*, 150 J/cm^2 @24 hr*, interpolated from 48 hr data) was “Complete”, the “Result” value (basal cell carcinoma; 0.05 mg/kg*, 200 J/cm^2 @24 hr*, interpolated from 48 hr data) was “Complete” and the “Result” value (basal cell carcinoma; 0.07 mg/kg*, 150 J/cm^2 @24 hr*, interpolated from 48 hr data) was “Complete”. The “Result” value (basal cell carcinoma; 0.07 mg/kg*, 200 J/cm^2 @24 hr*, interpolated from 48 hr data) was “Complete”, the “Result” value (basal cell carcinoma; 0.07 mg/kg, 50 J/cm^2 @24 hr) was “Fail and Partial and Complete” and the “Result” value (basal cell carcinoma; 0.07 mg/kg, 100 J/cm^2 @24 hr) was “Complete”. The “Result” value (basal cell carcinoma; 0.07 mg/kg, 150 J/cm^2 @48 hr) was “Complete”, the “Result” value (basal cell carcinoma; 0.07 mg/kg, 200 J/cm^2 @48 hr) was “Complete” and the “Result” value (basal cell carcinoma; 0.09 mg/kg, 50 J/cm^2 @24 hr) was “Partial; also recorded: Complete”. For the same molecule, the “Result” value (basal cell carcinoma; 0.09 mg/kg, 100 J/cm^2 @24 hr) was “Complete; also recorded: Partial”, the “Result” value (basal cell carcinoma; 0.09 mg/kg, 150 J/cm^2 @48 hr) was “Complete” and the “Result” value (basal cell carcinoma; 0.09 mg/kg, 200 J/cm^2 @48 hr) was “Complete”.
In the case of `Oc1cccc(-c2c3nc(c(-c4cccc(O)c4)c4ccc([nH]4)c(-c4cccc(O)c4)c4nc(c(-c5cccc(O)c5)c5ccc2[nH]5)CC4)C=C3)c1` [FOSCAN], the Reported phototoxicity (skin; 30 minute sun exposure a full week after injection) is given as “serious erythema”.
For porfimer sodium [PHOTOFRIN], the “Lowest reasonable effective dose / required dose” value (tumor [4]) is listed as 2 mg/kg and the Reported phototoxicity (skin; 2 mg/kg dose, exposure to only 9 Joules/cm^2 of activating light) is listed as “very serious erythema and necrosis”.
